Laboratory results published in BigSolDB 2.1.

**Q.** For Cc1c(N)c(=O)n(-c2ccccc2)n1C, which solubility (mole fraction) (in acetone, 299.05 K) is on record?
**A.** 0.37

**Q.** And the solubility (mole fraction) (in acetone, 303.15 K)?
**A.** 0.4

**Q.** What about the solubility (mole fraction) (in acetone, 307.25 K) of the same compound?
**A.** 0.43

**Q.** What about the solubility (mole fraction) (in acetone, 311.05 K) of the same compound?
**A.** 0.44

**Q.** What about the solubility (mole fraction) (in acetone, 315.15 K) of the same compound?
**A.** 0.47

**Q.** What about the solubility (mole fraction) (in acetone, 321.05 K) of the same compound?
**A.** 0.52

**Q.** And the solubility (mole fraction) (in acetone, 327.15 K)?
**A.** 0.55

**Q.** What about the solubility (mole fraction) (in acetone, 338.35 K) of the same compound?
**A.** 0.62

**Q.** And the solubility (mole fraction) (in ethanol, 299.05 K)?
**A.** 0.22

**Q.** What about the solubility (mole fraction) (in ethanol, 303.15 K) of the same compound?
**A.** 0.25

**Q.** What about the solubility (mole fraction) (in ethanol, 307.25 K) of the same compound?
**A.** 0.28

**Q.** And the solubility (mole fraction) (in ethanol, 311.05 K)?
**A.** 0.31

**Q.** What about the solubility (mole fraction) (in ethanol, 315.15 K) of the same compound?
**A.** 0.35

**Q.** What about the solubility (mole fraction) (in ethanol, 321.05 K) of the same compound?
**A.** 0.41

**Q.** And the solubility (mole fraction) (in ethanol, 327.15 K)?
**A.** 0.48

**Q.** What about the solubility (mole fraction) (in ethanol, 338.35 K) of the same compound?
**A.** 0.6

**Q.** And the solubility (mole fraction) (in ethyl acetate, 299.05 K)?
**A.** 0.08

**Q.** What about the solubility (mole fraction) (in ethyl acetate, 303.15 K) of the same compound?
**A.** 0.09

**Q.** What about the solubility (mole fraction) (in ethyl acetate, 307.25 K) of the same compound?
**A.** 0.11

**Q.** What about the solubility (mole fraction) (in ethyl acetate, 311.05 K) of the same compound?
**A.** 0.13

**Q.** And the solubility (mole fraction) (in ethyl acetate, 315.15 K)?
**A.** 0.15

**Q.** And the solubility (mole fraction) (in ethyl acetate, 321.05 K)?
**A.** 0.2

**Q.** What about the solubility (mole fraction) (in ethyl acetate, 327.15 K) of the same compound?
**A.** 0.25

**Q.** And the solubility (mole fraction) (in ethyl acetate, 338.35 K)?
**A.** 0.36

**Q.** And the solubility (mole fraction) (in isopropanol, 299.05 K)?
**A.** 0.19

**Q.** And the solubility (mole fraction) (in isopropanol, 303.15 K)?
**A.** 0.22

**Q.** And the solubility (mole fraction) (in isopropanol, 307.25 K)?
**A.** 0.25

**Q.** What about the solubility (mole fraction) (in isopropanol, 311.05 K) of the same compound?
**A.** 0.29

**Q.** And the solubility (mole fraction) (in isopropanol, 315.15 K)?
**A.** 0.32

**Q.** And the solubility (mole fraction) (in isopropanol, 321.05 K)?
**A.** 0.38

**Q.** And the solubility (mole fraction) (in isopropanol, 327.15 K)?
**A.** 0.45

**Q.** And the solubility (mole fraction) (in isopropanol, 338.35 K)?
**A.** 0.57

**Q.** What about the solubility (mole fraction) (in methanol, 299.05 K) of the same compound?
**A.** 0.23

**Q.** And the solubility (mole fraction) (in methanol, 303.15 K)?
**A.** 0.25

**Q.** And the solubility (mole fraction) (in methanol, 307.25 K)?
**A.** 0.28

**Q.** And the solubility (mole fraction) (in methanol, 311.05 K)?
**A.** 0.31

**Q.** What about the solubility (mole fraction) (in methanol, 315.15 K) of the same compound?
**A.** 0.34

**Q.** What about the solubility (mole fraction) (in methanol, 321.05 K) of the same compound?
**A.** 0.39

**Q.** What about the solubility (mole fraction) (in methanol, 327.15 K) of the same compound?
**A.** 0.44

**Q.** What about the solubility (mole fraction) (in methanol, 338.35 K) of the same compound?
**A.** 0.57

**Q.** What about the solubility (mole fraction) (in n-butanol, 299.05 K) of the same compound?
**A.** 0.15

**Q.** And the solubility (mole fraction) (in n-butanol, 303.15 K)?
**A.** 0.17

**Q.** And the solubility (mole fraction) (in n-butanol, 307.25 K)?
**A.** 0.19

**Q.** And the solubility (mole fraction) (in n-butanol, 311.05 K)?
**A.** 0.21

**Q.** And the solubility (mole fraction) (in n-butanol, 315.15 K)?
**A.** 0.24

**Q.** And the solubility (mole fraction) (in n-butanol, 321.05 K)?
**A.** 0.29

**Q.** And the solubility (mole fraction) (in n-butanol, 327.15 K)?
**A.** 0.34

**Q.** What about the solubility (mole fraction) (in n-butanol, 338.35 K) of the same compound?
**A.** 0.46

**Q.** And the solubility (mole fraction) (in n-propanol, 299.05 K)?
**A.** 0.21

**Q.** What about the solubility (mole fraction) (in n-propanol, 303.15 K) of the same compound?
**A.** 0.24

**Q.** What about the solubility (mole fraction) (in n-propanol, 307.25 K) of the same compound?
**A.** 0.28

**Q.** And the solubility (mole fraction) (in n-propanol, 311.05 K)?
**A.** 0.31

**Q.** What about the solubility (mole fraction) (in n-propanol, 315.15 K) of the same compound?
**A.** 0.35

**Q.** And the solubility (mole fraction) (in n-propanol, 321.05 K)?
**A.** 0.41

**Q.** And the solubility (mole fraction) (in n-propanol, 327.15 K)?
**A.** 0.46

**Q.** And the solubility (mole fraction) (in n-propanol, 338.35 K)?
**A.** 0.59

**Q.** What about the solubility (mole fraction) (in sec-butanol, 299.05 K) of the same compound?
**A.** 0.14

**Q.** What about the solubility (mole fraction) (in sec-butanol, 303.15 K) of the same compound?
**A.** 0.16

**Q.** What about the solubility (mole fraction) (in sec-butanol, 307.25 K) of the same compound?
**A.** 0.18

**Q.** What about the solubility (mole fraction) (in sec-butanol, 311.05 K) of the same compound?
**A.** 0.2

**Q.** What about the solubility (mole fraction) (in sec-butanol, 315.15 K) of the same compound?
**A.** 0.23

**Q.** And the solubility (mole fraction) (in sec-butanol, 321.05 K)?
**A.** 0.27

**Q.** What about the solubility (mole fraction) (in sec-butanol, 327.15 K) of the same compound?
**A.** 0.31

**Q.** What about the solubility (mole fraction) (in sec-butanol, 338.35 K) of the same compound?
**A.** 0.41

**Q.** What about the solubility (mole fraction) (in water, 299.05 K) of the same compound?
**A.** 0.13

**Q.** What about the solubility (mole fraction) (in water, 303.15 K) of the same compound?
**A.** 0.15

**Q.** What about the solubility (mole fraction) (in water, 307.25 K) of the same compound?
**A.** 0.17

**Q.** And the solubility (mole fraction) (in water, 311.05 K)?
**A.** 0.19

**Q.** What about the solubility (mole fraction) (in water, 315.15 K) of the same compound?
**A.** 0.22

**Q.** And the solubility (mole fraction) (in water, 321.05 K)?
**A.** 0.27

**Q.** And the solubility (mole fraction) (in water, 327.15 K)?
**A.** 0.33

**Q.** And the solubility (mole fraction) (in water, 338.35 K)?
**A.** 0.44
